From patent US20070276034A1, “Compounds, compositions and methods for the treatment of synucleinopathies” (priority 2002, published 2007) come the findings set out here.

Common to all, as to type: biochemical
The target of test [1] is T1, Aβ 1-42 fibrils (Homo sapiens, UniProt P05067).
T1 construct: purchased Bachem Inc
The test can be described thus: Thioflavin T fluorometry - disruption of pre-formed Aβ 1-42 Alzheimer's fibrils. The settings on record: 25 μM pre-fibrillized Aβ 1-42, 37° C., 3 days; for inhibition: read-out: % Inhibition Aβ (result ± S.D.). The source says: In one study, Thioflavin T fluorometry was used to determine the effects of the compounds, and of EDTA (as a negative control). In this assay Thioflavin T binds specifically to fibrillar amyloid, and this binding produces a fluorescence enhancement at 485 nm that is directly proportional to the amount of amyloid fibrils formed. The higher the fluorescence, the greater the amount of amyloid fibrils formed (Naki et al., Lab. Invest. 65:104-110, 1991; Levine III, Protein Sci. 2:404-410, 1993; Amyloid: Int. J. Exp. Clin. Invest. 2:1-6, 1995).
(§1) In this study, 25 μM of pre-fibrillized Aβ 1-42 (Bachem Inc) was incubated at 37° C. for 3 days either alone, or in the presence of one of the compounds or EDTA (at Aβ:test compound weight ratios of 1:1, 1:0.1, 1:0.01 or 1:0.001). Following 3-days of co-incubation, 50 μl of each incubation mixture was transferred into a 96-well microtiter plate containing 150 μl of distilled water and 50 μl of a Thioflavin T solution (i.e. 500 mM Thioflavin T in 250 mM phosphate buffer, pH 6.8). The fluorescence was read at 485 nm (444 nm excitation wavelength) using an ELISA plate fluorometer after subtraction with buffer alone or compound alone, as blank.

The target of a further test is T2, monomeric Aβ 1-42 (Homo sapiens, UniProt P05067).
T2 construct: purchased Bachem Inc
T2 sequence (P05067 672-713): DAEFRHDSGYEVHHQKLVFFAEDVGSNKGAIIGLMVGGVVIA
As to the kind of experiment: SDS-PAGE/Western blot of Aβ 1-42 after incubation with compounds. The settings on record: 25 μM pre-fibrillized Aβ 1-42, 37° C., 3 days, 0.2 μm filtrate, antibody 6E10. The protocol:
In this latter study, triplicate samples of pre-fibrillized Aβ 1-42 (25 μM) was incubated at 37° C. for 3 days, alone or in the presence of the compounds or EDTA. Five micrograms of each sample was then filtered through a 0.2 μm filter. Protein recovered from the filtrate was then loaded, and ran on a 10-20% Tris-Tricine SDS-PAGE, blotted to nitrocellulose and detected using an Aβ-antibody (clone 6E10; Senetek).
(Immunoblotting shows a protein as a band on a membrane.)

The target in test [2] is T1, Aβ 1-42 fibrils. The test can be described thus: Congo red binding assay with Aβ 1-42 fibrils. The settings on record: 3-day incubation. The protocol:
(§2) In the Congo red binding assay the ability of a test compound to alter amyloid (in this case, Aβ) binding to Congo red is quantified. In this assay, Aβ 1-42 and test compounds were incubated for 3 days and then vacuum filtered through a 0.2 μm filter. The amount of Aβ 1-42 retained in the filter was then quantitated following staining of the filter with Congo red. After appropriate washing of the filter, any lowering of the Congo red color on the filter in the presence of the test compound (compared to the Congo red staining of the amyloid protein in the absence of the test compound) was indicative of the test compound's ability to diminish/alter the amount of aggregated and congophilic Aβ.
In one study, the ability of Aβ fibrils to bind Congo red in the absence or presence of increasing amounts of the compounds or EDTA (at Aβ:test compound weight ratios of 1:1, 1:0.1, 1:0.01 or 1:0.001) was determined.

In test [3] the target is T3, IAPP fibrils (Homo sapiens, UniProt P10997).
T3 construct: purchased Bachem Inc
T3 sequence (P10997 34-70 limits assumed): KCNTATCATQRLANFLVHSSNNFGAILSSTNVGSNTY
The test can be described thus: Thioflavin T fluorometry - disruption of type 2 diabetes IAPP fibrils. Conditions: 25 μM pre-fibrillized IAPP, 37° C., 3 days; for inhibition: read-out: % Inhibition IAPP (result ± S.D.). As to the method:
In this assay Thioflavin T binds specifically to fibrillar amyloid, and this binding produces a fluorescence enhancement at 485 nm that is directly proportional to the amount of IAPP fibrils present. The higher the fluorescence, the greater the amount of IAPP fibrils present (Naki et al, Lab. Invest. 65:104-110, 1991; Levine III, Protein Sci. 2:404-410, 1993; Amyloid: Int. J. Exp. Clin. Invest. 2:1-6, 1995).
as §1, with “IAPP” for “Aβ 1-42”, “IAPP:test” for “Aβ:test”

Test [4] deals with T3, IAPP fibrils. As to the kind of experiment: Congo red binding assay with IAPP fibrils. The settings on record: 3-day incubation. The protocol: as §2, with “of a given test compound” for “of a test compound”, “this case, IAPP) binding to” for “this case, Aβ) binding to”, “this assay, IAPP and test” for “this assay, Aβ 1-42 and test”, “amount of IAPP retained in” for “amount of Aβ 1-42 retained in”, “and congophilic IAPP.” for “and congophilic Aβ.”
In the study, the ability of IAPP fibrils to bind Congo red in the absence or presence of increasing amounts of the compounds or EDTA (at IAPP:test compound weight ratios of 1:1, 1:0.1, 1:0.01 or 1:0.001) was determined.

A further test has as its target T4, NAC fibrils (Homo sapiens, UniProt P37840).
T4 construct: NAC is a 35-amino acid fragment of α-synuclein; purchased Bachem Inc
The test can be described thus: Thioflavin T fluorometry - disruption of Parkinson's disease NAC fibrils. Conditions: 3 days; for inhibition: 25 μM pre-fibrillized NAC, 37° C., read-out: % Inhibition NAC (result ± S.D.). As to the method: In this assay, Thioflavin T binds specifically to NAC fibrils, and this binding produces a fluorescence enhancement at 485 nm that is directly proportional to the amount of NAC fibrils present. The higher the fluorescence, the greater the amount of NAC fibrils present (Naki et al, Lab. Invest. 65:104-110, 1991; Levine III, Protein Sci. 2:404-410, 1993; Amyloid: Int. J. Exp. Clin. Invest. 2:1-6, 1995).
In this study, 25 μM of pre-fibrillized NAC (Bachem Inc) was incubated at 37° C. for 3 days either alone or in the presence of dihydroxy synthetic analog compounds #1, 3, 23, 26, 52, 63, 66, 67, or EDTA (at NAC:test compound weight ratios of 1:1, 1:0.1, 1:0.01 or 1:0.001). Following 3-days of co-incubation, 50 βl of each incubation mixture was transferred into a 96-well microtiter plate containing 150 μl of distilled water and 50 μl of a Thioflavin T solution (i.e. 500 mM Thioflavin T in 250 mM phosphate buffer, pH 6.8). The fluorescence was read at 485 nm (444 nm excitation wavelength) using an ELISA plate fluorometer after subtraction with buffer alone or compound alone, as blank.

Setting [5] is: Aβ:test compound wt/wt ratio 1:0.001.
[6] abbreviates: Aβ:test compound wt/wt ratio 1:0.01.
[7] abbreviates: Aβ:test compound wt/wt ratio 1:0.1.
[8] abbreviates: Aβ:test compound wt/wt ratio 1:1.
The mark [9] stands for this setting: IAPP:test compound wt/wt ratio 1:0.001.
The mark [10] stands for this setting: IAPP:test compound wt/wt ratio 1:0.01.
[11] abbreviates: IAPP:test compound wt/wt ratio 1:0.1.
Where [12] appears, read: IAPP:test compound wt/wt ratio 1:1.

Like-named read-outs stand apart in the source and are kept apart here.

T1 sequence (P05067 672-713): as the sequence (P05067 672-713) above

For `CN1C2CCC1C(Cc1ccc(O)c(O)c1)C(=O)C2Cc1ccc(O)c(O)c1` (stereo not shown) [Compound 19, 2,4-bis(3,4-dihydroxybenzyl)-3-tropinone], the “% Inhibition Aβ (result ± S.D.)” value is reported as 10.8 ± 1.38% on Aβ 1-42 fibrils [1] (setting [5]), 46.2 ± 2.98% at Aβ 1-42 fibrils [1] (setting [6]), 91.1 ± 0.66% at Aβ 1-42 fibrils [1] (setting [7]) and 99.1 ± 0.56% on Aβ 1-42 fibrils [1] (setting [8]). Moreover, at monomeric Aβ 1-42, the “detection of Aβ 1-42 monomers (~4 kilodalton band) on Western blot” value (from here on “detection of Aβ 1-42 monomers”) is “not detected”. Further, the figures for the “% Inhibition Aβ (result ± S.D.), Congo red binding” value at Aβ 1-42 fibrils [2] (setting [6]), on Aβ 1-42 fibrils [2] (setting [7]) and on Aβ 1-42 fibrils [2] (setting [8]) were 7.4 ± 2.20%, 22.4 ± 2.19% and 48.1 ± 2.00%, respectively. The “% Inhibition IAPP (result ± S.D.)” value came out at 16.7 ± 10.20% on IAPP fibrils [3] (setting [9]), 51.7 ± 2.98% on IAPP fibrils [3] (setting [10]), 94.0 ± 0.10% on IAPP fibrils [3] (setting [11]) and 100.0 ± 0.24% at IAPP fibrils [3] (setting [12]). For the same compound, the “% Inhibition IAPP (result ± S.D.), Congo red binding” value worked out at 6.0 ± 0.78% on IAPP fibrils [4] (setting [10]), 21.0 ± 3.70% at IAPP fibrils [4] (setting [11]) and 49.3 ± 3.97% on IAPP fibrils [4] (setting [12]).
For the compound `O=C(CCC(=O)Nc1ccc(O)c(O)c1)Nc1ccc(O)c(O)c1` [Compound 66, succinic acid bis(3,4-dihydroxyanilide)], the inhibition worked out at 27.1 ± 3.51% at Aβ 1-42 fibrils [1] (setting [5]); 42 ± 2.36% on Aβ 1-42 fibrils [1] (setting [6]); 78.3 ± 4.17% at Aβ 1-42 fibrils [1] (setting [7]); 100 ± 0.68% on Aβ 1-42 fibrils [1] (setting [8]); 11.1 ± 5.28% at IAPP fibrils [3] (setting [9]); 47.6 ± 8.16% on IAPP fibrils [3] (setting [10]). Besides, the inhibition at IAPP fibrils [3] (setting [11]) was determined as 94 ± 2.88%; at IAPP fibrils [3] (setting [12]), 98.5 ± 0.06%; at NAC fibrils (NAC:test compound wt/wt ratio 1:0.001), 30.5 ± 9.55%; on NAC fibrils (NAC:test compound wt/wt ratio 1:0.01) it was 43.4 ± 3.45%; on NAC fibrils (NAC:test compound wt/wt ratio 1:0.1), 82.5 ± 5.37%; on NAC fibrils (NAC:test compound wt/wt ratio 1:1), 98.9 ± 0.65%. Besides, the “detection of Aβ 1-42 monomers” value on monomeric Aβ 1-42 is “not detected”. For the same compound, the “% Inhibition IAPP (result ± S.D.), Congo red binding” value at IAPP fibrils [4] (setting [9]) is on record as 4.8 ± 1.86%; on IAPP fibrils [4] (setting [10]), 5.7 ± 4.23%; on IAPP fibrils [4] (setting [11]), 15.7 ± 2.53%; at IAPP fibrils [4] (setting [12]), 41.4 ± 3.84%. The “disruption/disassembly of pre-formed NAC fibrils (in words)” value at NAC fibrils (all concentrations tested (ratios 1:1 to 1:0.001)) was “dose-dependent disruption/disassembly”.
For the compound `Oc1ccc(CN(Cc2ccc(O)c(O)c2)Cc2ccc(O)c(O)c2)cc1O` [Compound 75, tris(3,4-dihydroxybenzyl)amine], the inhibition stood at 17 ± 4.2% at Aβ 1-42 fibrils [1] (setting [5]); 31.6 ± 4.74% on Aβ 1-42 fibrils [1] (setting [6]); 84.4 ± 0.94% on Aβ 1-42 fibrils [1] (setting [7]); 99 ± 0.63% on Aβ 1-42 fibrils [1] (setting [8]); 6 ± 6.46% at IAPP fibrils [3] (setting [9]); 43.9 ± 5.34% on IAPP fibrils [3] (setting [10]). Further, the inhibition is 90 ± 0.27% at IAPP fibrils [3] (setting [11]) and 100 ± 0.35% at IAPP fibrils [3] (setting [12]). The “detection of Aβ 1-42 monomers” value at monomeric Aβ 1-42 is listed as “not detected”. Also, the “% Inhibition IAPP (result ± S.D.), Congo red binding” value stood at 2.9 ± 0.69% at IAPP fibrils [4] (setting [9]), 11.3 ± 2.24% at IAPP fibrils [4] (setting [10]), 7.4 ± 0.70% at IAPP fibrils [4] (setting [11]) and 49.0 ± 1.17% at IAPP fibrils [4] (setting [12]).

What is called inhibition is the drop in the measured response relative to a control, in per cent.
